According to US20250195403A1, “SKIN WHITENING, ANTI-BACTERIAL OR ANTI-ATOPIC COMPOSITION, CONTAINING SYZYGIUM FORMOSUM EXTRACT AS ACTIVE INGREDIENT” (CARBOEXPERT INC., priority 2018, published 2025):

Assays:
tyrosinase [1] = experiment: Tyrosinase inhibitory activity using L-tyrosine; assay type: biochemical; settings: substrate L-tyrosine, sample 0.5 mg/ml, 25° C., 15 minutes, 475 nm
Procedure: The inhibitory activity of tyrosinase, which is an enzyme that plays an important role in the melanin synthesis process, was confirmed using the Syzygium formosum extract.
500 μl of 1 mM L-tyrosine, 900 μl of 0.1 M phosphate buffer (pH 6.8), and 100 μl of 0.5 mg/ml Syzygium formosum extract dissolved in 10% DMSO (Example 1, Example 2, and Comparative Examples 1 to 7) were mixed, and then 100 μl of tyrosinase (53.7 U/ml) was added thereto and reacted at a temperature of 25° C. for 15 minutes. At this time, DMSO was used as a control group, and 0.5 mg/ml arbutin was used as a positive control group.
The absorbance of the reaction solution was measured at 475 nm for 15 minutes at time intervals of 30 seconds, and then, the tyrosinase inhibitory activity (%) was calculated using Equation 1.

tyrosinase [2] = experiment: Tyrosinase inhibitory activity using L-DOPA; assay type: biochemical; settings: substrate L-DOPA, 25° C., 5 minutes, 475 nm
Procedure: Tyrosinase inhibitory activity was confirmed using L-DOPA.
• Tyrosinase solution: Tyrosinase was dissolved in 0.1M PBS (Phosphate buffered saline) buffer to prepare a solution having a concentration of 110 U/ml. • Substrate: L-DOPA was dissolved in 0.1M PBS buffer to be in the concentration of 5 mM. • Sample Usage: Diluted with distilled water to a corresponding concentration and used. • Negative control: Distilled water was added instead of the sample.
Syzygium formosum extract (Example 1, Example 2, and Comparative Examples 1 to 7), 30 μl of negative control (control), 30 μl of positive control (positive control), 70 μl of 0.1M PBS buffer, and 30 μl of substrate were added. Then, 20 μl of tyrosinase was added thereto, and the reaction was performed at a temperature of 25° C. for 5 minutes. After completion of the reaction, absorbance was measured at 475 nm. The tyrosinase inhibitory activity (%) was calculated using Equation 1 by comparing the absorbance of the test group with that of the control group.

B16F10 cell line = experiment: Melanin production inhibitory activity in B16F10 cells; assay type: cell-based, mice; settings: extract 0.1 mg/ml, 72 hours, 400 nm
Procedure: The cell line used in the test was B16F10 cell line (Korean Cell Line Bank, Korea), which is a malignant melanoma cell in mice. The cryopreserved cell line was cultured in a culture dish, and after cell line stabilization was confirmed while repeating the subculture twice to three times in the cycle of 2 to 3 days after the first cell culture, cells were cultured in a 48-well plate by the number of cells of 1×10^5/well. Then, the test was prepared by incubating for 24 hours. […] 300 μl of the medium containing each of the sample, the negative control group, and the positive control group was added to a 48-well plate on which cell had been cultured in advance, and cell were cultured for 72 hours at 37° C. under 5% CO2 while the medium was exchanged every day. Thereafter, the medium was removed by washing each well with PBS, and then the cells were treated with 200 μl of 1N NaOH. Thereafter, absorbance was measured at 400 nm using a SpectraMax M2 (Molecular devices, USA). The degree of inhibition on the production of melanin was calculated by comparing the absorbance of the test group with that of the control group treated with the negative control group by using Equation 2. [formula]

Inhibitory activity (%) (tyrosinase [1]): 49.1%
Inhibitory activity (%) (tyrosinase [2]): 18.6%
SMILES: OC[C@H]1O[C@@H](Oc2ccc(O)cc2)[C@H](O)[C@@H](O)[C@@H]1O [Arbutin, arbutin]
Inhibitory activity (%) (B16F10 cell line): 21.1%
